For six molecules, Activity and Ki results are on record in ChEMBL document CHEMBL2074135, “Recognition of L-amino acid ester compounds by rat peptide transporters PEPT1 and PEPT2” (J Pharmacol Exp Ther, 1999).

Values joined by “and” are separate entries in the source; they are usually repeats but may differ in a detail not shown here. Equal entries are not always repeated.

What all share (format): functional, cell-based
Experiment [1] has as its target T1, Solute carrier family 15 member 1 (Rattus norvegicus) (UniProt P51574).
T1 sequence (whole entry): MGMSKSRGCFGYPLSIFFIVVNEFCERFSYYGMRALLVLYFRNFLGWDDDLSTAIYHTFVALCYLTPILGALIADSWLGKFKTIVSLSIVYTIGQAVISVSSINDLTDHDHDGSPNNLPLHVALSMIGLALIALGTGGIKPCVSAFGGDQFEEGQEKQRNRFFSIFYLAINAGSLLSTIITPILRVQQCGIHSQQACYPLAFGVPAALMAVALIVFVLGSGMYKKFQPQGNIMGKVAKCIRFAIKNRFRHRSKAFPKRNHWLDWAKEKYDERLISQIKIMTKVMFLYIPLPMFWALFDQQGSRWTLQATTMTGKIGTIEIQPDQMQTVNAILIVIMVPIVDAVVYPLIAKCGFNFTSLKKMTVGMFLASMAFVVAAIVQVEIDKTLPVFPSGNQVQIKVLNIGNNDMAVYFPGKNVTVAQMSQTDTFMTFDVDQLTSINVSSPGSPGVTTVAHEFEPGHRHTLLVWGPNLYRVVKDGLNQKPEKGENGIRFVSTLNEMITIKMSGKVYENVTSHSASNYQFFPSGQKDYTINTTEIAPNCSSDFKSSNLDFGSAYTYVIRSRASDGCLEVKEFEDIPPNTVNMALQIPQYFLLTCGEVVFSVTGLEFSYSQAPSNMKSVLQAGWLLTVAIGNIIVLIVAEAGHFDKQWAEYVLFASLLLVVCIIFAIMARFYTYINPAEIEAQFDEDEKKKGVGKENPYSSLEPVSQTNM
The experiment can be described thus: TP_TRANSPORTER: inhibition of Gly-Sar uptake (Gly-Sar: 20 uM, Gly-OMe: 10000 uM) in PEPT1-expressing LLC-PK1 cells.

Experiment [2] has as its target T2, Solute carrier family 15 member 2 (Rattus norvegicus) (UniProt Q63424).
T2 sequence (whole entry): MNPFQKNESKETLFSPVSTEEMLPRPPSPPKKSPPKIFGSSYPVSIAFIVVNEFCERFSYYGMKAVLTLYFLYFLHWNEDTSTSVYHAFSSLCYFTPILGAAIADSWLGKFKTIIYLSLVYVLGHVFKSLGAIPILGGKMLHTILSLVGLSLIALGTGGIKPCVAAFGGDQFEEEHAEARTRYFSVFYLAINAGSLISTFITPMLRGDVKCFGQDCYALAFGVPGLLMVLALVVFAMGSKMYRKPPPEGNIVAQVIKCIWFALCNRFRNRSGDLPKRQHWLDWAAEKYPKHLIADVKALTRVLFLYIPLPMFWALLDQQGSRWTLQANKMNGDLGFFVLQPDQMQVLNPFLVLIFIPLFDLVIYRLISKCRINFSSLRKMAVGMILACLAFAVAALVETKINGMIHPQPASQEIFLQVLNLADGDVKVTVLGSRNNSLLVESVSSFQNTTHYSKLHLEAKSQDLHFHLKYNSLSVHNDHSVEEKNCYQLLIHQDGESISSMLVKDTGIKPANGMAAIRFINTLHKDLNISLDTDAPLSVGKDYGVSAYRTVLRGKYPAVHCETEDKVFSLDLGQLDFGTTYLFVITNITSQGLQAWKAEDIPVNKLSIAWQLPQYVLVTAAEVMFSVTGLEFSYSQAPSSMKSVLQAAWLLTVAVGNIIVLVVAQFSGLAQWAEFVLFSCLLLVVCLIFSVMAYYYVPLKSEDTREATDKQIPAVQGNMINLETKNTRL
The experiment can be described thus: TP_TRANSPORTER: inhibition of Gly-Sar uptake (Gly-Sar: 20 uM, Gly-OMe: 10000 uM) in PEPT2-expressing LLC-PK1 cells.

Experiment [3] deals with T1, Solute carrier family 15 member 1 (Rattus norvegicus). The experiment can be described thus: TP_TRANSPORTER: inhibition of Gly-Sar uptake (Gly-Sar: 20 uM, Ser-OMe: 10000 uM) in PEPT1-expressing LLC-PK1 cells.
Experiment [4] shares this target. The experiment can be described thus: TP_TRANSPORTER: inhibition of Gly-Sar uptake (Gly-Sar: 20 uM, Ala-OMe: 10000 uM) in PEPT1-expressing LLC-PK1 cells.
For experiment [5], the target named is T2, Solute carrier family 15 member 2 (Rattus norvegicus). The experiment can be described thus: TP_TRANSPORTER: inhibition of Gly-Sar uptake (Gly-Sar: 20 uM, Ala-OMe: 10000 uM) in PEPT2-expressing LLC-PK1 cells.
Experiment [6] concerns the target T3, Solute carrier family 15 member 1 (Rattus norvegicus, UniProt P51574).
T3 sequence (P51574 whole entry): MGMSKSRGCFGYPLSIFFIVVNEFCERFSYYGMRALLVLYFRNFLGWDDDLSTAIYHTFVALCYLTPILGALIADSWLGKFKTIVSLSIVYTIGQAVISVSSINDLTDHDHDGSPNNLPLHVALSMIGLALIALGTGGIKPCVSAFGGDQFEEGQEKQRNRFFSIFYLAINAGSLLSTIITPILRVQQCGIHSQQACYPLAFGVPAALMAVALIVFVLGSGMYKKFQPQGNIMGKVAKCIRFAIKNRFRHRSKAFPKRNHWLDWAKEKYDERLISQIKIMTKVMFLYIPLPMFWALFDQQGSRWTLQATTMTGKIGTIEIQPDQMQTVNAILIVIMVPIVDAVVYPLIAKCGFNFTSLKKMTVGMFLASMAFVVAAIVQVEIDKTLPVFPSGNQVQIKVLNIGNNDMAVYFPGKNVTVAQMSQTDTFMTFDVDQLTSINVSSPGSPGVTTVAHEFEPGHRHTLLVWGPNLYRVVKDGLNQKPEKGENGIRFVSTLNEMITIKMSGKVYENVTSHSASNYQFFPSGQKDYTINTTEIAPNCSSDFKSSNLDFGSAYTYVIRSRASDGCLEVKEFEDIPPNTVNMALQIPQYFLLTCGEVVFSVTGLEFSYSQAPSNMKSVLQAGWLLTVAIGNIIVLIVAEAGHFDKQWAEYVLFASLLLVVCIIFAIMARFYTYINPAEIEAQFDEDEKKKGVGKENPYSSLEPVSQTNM
The experiment in a line: TP_TRANSPORTER: inhibition of Gly-Sar uptake in PEPT1-expressing LLC-PK1 cells.

Experiment [7] has as its target T4, Solute carrier family 15 member 2 (Rattus norvegicus, UniProt Q63424).
T4 sequence (Q63424 whole entry): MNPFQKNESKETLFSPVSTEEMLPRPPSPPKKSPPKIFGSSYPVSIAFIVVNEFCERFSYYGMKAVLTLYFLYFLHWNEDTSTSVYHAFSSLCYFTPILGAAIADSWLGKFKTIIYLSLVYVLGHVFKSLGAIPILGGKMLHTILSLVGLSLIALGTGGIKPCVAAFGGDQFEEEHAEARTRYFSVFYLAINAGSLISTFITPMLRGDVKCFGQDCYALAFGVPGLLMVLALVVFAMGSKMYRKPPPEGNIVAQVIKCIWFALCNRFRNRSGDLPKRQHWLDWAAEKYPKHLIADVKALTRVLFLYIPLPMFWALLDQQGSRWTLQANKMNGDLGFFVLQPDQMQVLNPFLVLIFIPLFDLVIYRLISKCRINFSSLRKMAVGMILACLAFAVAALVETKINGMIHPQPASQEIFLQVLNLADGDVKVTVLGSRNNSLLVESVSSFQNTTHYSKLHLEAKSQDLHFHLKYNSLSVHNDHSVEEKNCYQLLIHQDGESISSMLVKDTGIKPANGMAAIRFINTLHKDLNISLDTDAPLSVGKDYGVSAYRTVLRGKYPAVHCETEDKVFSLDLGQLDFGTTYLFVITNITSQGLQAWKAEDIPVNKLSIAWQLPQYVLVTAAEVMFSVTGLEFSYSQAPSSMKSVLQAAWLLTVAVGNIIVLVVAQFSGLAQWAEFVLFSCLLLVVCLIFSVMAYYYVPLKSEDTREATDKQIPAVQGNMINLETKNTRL
The experiment can be described thus: TP_TRANSPORTER: inhibition of Gly-Sar uptake in PEPT2-expressing LLC-PK1 cells.

Experiment [8] concerns the target T1, Solute carrier family 15 member 1 (Rattus norvegicus). The experiment in a line: TP_TRANSPORTER: inhibition of Gly-Sar uptake (Gly-Sar: 20 uM, Val-OEt: 10000 uM) in PEPT1-expressing LLC-PK1 cells.
Experiment [9] has as its target T2, Solute carrier family 15 member 2 (Rattus norvegicus). The experiment can be described thus: TP_TRANSPORTER: inhibition of Gly-Sar uptake (Gly-Sar: 20 uM, Val-OEt: 10000 uM) in PEPT2-expressing LLC-PK1 cells.

`COC(=O)CN`: the Activity entry in experiment [1] and in experiment [2] was “inhibitor [+]” in each case.

On to `COC(=O)[C@@H](N)CO`, for which, in [3], the Activity entry is “inhibitor [+]”.

As to `COC(=O)[C@H](C)N`, the Activity entry in experiment [4] and in [5] was “inhibitor [+]” each time.

Turning to `COC(=O)[C@@H](N)C(C)C`, the Ki in experiment [6] was determined as 3600 µM; in experiment [7] it was 830 µM.

As for `CC(C)[C@H](N)C(=O)OCCOCn1cnc2c(=O)[nH]c(N)nc21` [VALACYCLOVIR], the Ki is 2500 µM and 2700 µM in experiment [6]; 220 µM in [7]; 220 µM in experiment [7] (llc-pk1).

Turning to `CCOC(=O)[C@@H](N)C(C)C`, the Activity entry in experiment [8] and in experiment [9] was “inhibitor [+]” throughout.

As usually defined, the Ki is a dissociation constant, usually derived from enzyme kinetics or from competition with a known ligand.
